Results: patent US4749710A, “Immunosuppressive agents” (priority 1985, dated 1988)

What was measured:
Assay type in all cases: cell-based
[1] = tested on: human mixed leukocyte-tumor cultures; assay: Total viable cells recovered from human mixed leukocyte-tumor cultures; conditions: Table IV
Experimental: Human cytotoxic T-lymphocytes were generated in mixed leukocyte-tumor cultures by known methods. Specifically, blood from normal volunteer donors was drawn into heparinized syringes, diluted 1:1 with calcium-magnesium free Hanks' balanced salt solution (Ca-Mg free HBSS), and layered over lymphocyte separation medium (Litton Bionetics, Kensington, MD). After centrifugation at 500xg for 20-30 min at room temperature, peripheral blood mononuclear cells were harvested from the interface. The peripheral blood mononuclear leukocytes were centrifuged and resuspended in Ca-Mg free HBSS and were subsequently separated from platelets by centrifugation at 500xg through a solution of 20% sucrose and 1% human AB serum in Ca-Mg free HBSS. The cells were washed once and finally resuspended in tissue culture medium. […] Cells to be used as stimulator cells in mixed leukocyte-tumor cultures were irradiated with 10,000 rads of gamma irradiation to preclude proliferation in culture. Mixed leukocyte-tumor cell cultures were established in 16 mm tissue culture wells at a final volume of 1.5 ml per well containing 2×10^6 peripheral blood mononuclear leukocytes and 5×10^4 irradiation-inactivated stimulator cells. […]

[2] = tested on: IgM production by human lymphocytes; assay: Inhibition of IgM production by human lymphocytes in vitro (SAC activation, ELISA); conditions: 8 days, vehicle control 2.49 ± 0.17
Source text: (§1) General Test Description Humoral immunity comprises one of the two major arms of the immune system and generally is beneficial. However, a number of disease states are characterized by a hyperactive immune system responding to self tissue antigens. […] In these diseases it would be important to suppress the humoral immune system.
(§2) In the following studies we used established methods to examine the effect of Vitamin D derivatives on the in vitro production of immunoglobulin (Ig) by human peripheral blood leukocytes (PBL) following polyclonal activation. Immunoglobulin was induced from PBL by co-culturing the PBL with the polyclonal B cell activator Staphylococcus aureus strain Cowan I (SAC) for a period of 8 days. The quantity of Ig produced in the culture supernatants was determined by using an enzyme linked immunosorbent assay (ELISA). The effect of Vitamin D derivatives was determined by comparing the amount of antibody produced in cultures containing Vitamin D derivatives to those cultures containing an appropriate concentration of vehicle (ethanol).
(§3) Solutions of vitamin D derivatives. Stock solutions of vitamin D derivatives were prepared as described previously for the murine CTL experiments.
(§4) INDUCTION OF HUMAN IG SECRETION Human peripheral blood mononuclear leukocytes were prepared from one day old buffy coat preparations obtained from the American Red Cross (Lansing, MI). […] Twenty five ml of this preparation were overlayed onto 25 ml of Ficoll-Paque contained in a 50 ml polypropylene centrifuge tube. After centrifugation at 400×g at 15° C. for 40 min, the cells at the interface of the medium and Ficoll were removed and washed 3 times in 50 ml RPMI medium and centrifuged at 300×g for 10 minutes. After the final centrifugation,the cell pellet was suspended in RPMI medium containing 20% fetal bovine serum (FBS) and 80 μg/ml gentamicin. The number of viable cells was determined by trypan blue exclusion and were then suspended to 2.5×10^6 viable cells per ml in RPMI containing 20% FBS and gentamicin. Human PBL were induced to secrete Ig as follows. One hundred microliters of the PBL suspension and an additional 100 μl of a 1:20,000 (v/v) preparation of SAC suspended in RPMI containing 1% FBS were added to each well of a 96-well microtiter plate. Selected wells were also set up without the addition of SAC to serve as negative controls (spontaneous Ig secretion). Each well then received 20 μl of either the appropriate dilution of Vitamin D derivative in RPMI with 1% ethanol or RPMI with 1% ethanol (vehicle control). The vitamin D derivatives were tested at final concentrations of 10^-5, 10^-6, 10^-7, 10^-8, 10^-9, and 10^-10 M and in all cases the vehicle (ethanol) concentration was 0.1%. All treatments were performed in triplicate. […] The samples were then either assayed immediately or stored at -20° C. until assayed by the ELISA technique described below.
(§5) QUANTITATION OF SECRETED IG (ELISA ASSAY) ELISA plates were prepared for quantitating human IgG and IgM levels in culture supernatants as follows. Affinity purified sheep anti-human IgG and goat anti-human IgM (Cappel, Cochranville, PA) were diluted 1:250 and 1:400 respectively, in carbonate coating buffer (0.05M sodium bicarbonate, 0.05M sodium carbonate, 0.15M sodium chloride). One hundred and fifty microliters of the antibody preparation were added to each well of a 96 well ELISA plate (EIA, Costar). The plates were sealed and incubated overnight at 4° C. and on the following day were washed 3 times with distilled water. Each well then received 350 μl of Dulbecco's PBS containing 1 mg/ml bovine serum albumin (BSA) and 0.5 mg/ml sodium azide. The plates were allowed to incubate for 1 hour at 37° C. and then washed 3 times with Dulbecco's PBS containing 0.5% stock Tween 20 (PBS-Tween) followed by 2 washes with distilled water. The plates were air dried and stored desiccated under a vacuum at 4° C. until use.

[3] = tested on: IgG production by human lymphocytes; assay: Inhibition of IgG production by human lymphocytes in vitro (SAC activation, ELISA); conditions: 8 days, vehicle control 0.78 ± 0.09
Source text: as §1, §2, §3, §4, §5

| SMILES | toxicity at concentrations suppressing human CTL generation (in words) [1] | IgM μg per culture (x ± S.E.M.) ([2]; 1 × 10^-6 molar) | IgM μg per culture (x ± S.E.M.) ([2]; 1 × 10^-7 molar) | IgM μg per culture (x ± S.E.M.) ([2]; 1 × 10^-8 molar) | IgM μg per culture (x ± S.E.M.) ([2]; 1 × 10^-9 molar) | IgM μg per culture (x ± S.E.M.) ([2]; 1 × 10^-10 molar) | IgG μg per culture (x ± S.E.M.) ([3]; 1 × 10^-6 molar) | IgG μg per culture (x ± S.E.M.) ([3]; 1 × 10^-7 molar) | IgG μg per culture (x ± S.E.M.) ([3]; 1 × 10^-8 molar) | IgG μg per culture (x ± S.E.M.) ([3]; 1 × 10^-9 molar) | IgG μg per culture (x ± S.E.M.) ([3]; 1 × 10^-10 molar) |
| --- | --- | --- | --- | --- | --- | --- | --- | --- | --- | --- | --- |
| C=C1/C(=C\C=C2/CCC[C@]3(C)[C@@H]([C@H](C)C[C@H](O)CC(C)(C)O)CC[C@@H]23)C[C@@H](O)C[C@@H]1O [1α,23S,25-(OH)3 --D3, 1α,23S,25-Trihydroxycholecalciferol] | non-toxic | undetectable | 0.12 ± 0.07 μg per culture | 0.46 ± 0.13 μg per culture | 1.55 ± 0.96 μg per culture | 4.61 ± 0.73 μg per culture | 0.01 ± 0.002 μg per culture | 0.02 ± 0.002 μg per culture | 0.05 ± 0.01 μg per culture | 1.14 ± 0.61 μg per culture | 0.54 ± 0.18 μg per culture |
| C=C1/C(=C\C=C2/CCC[C@]3(C)[C@@H]([C@H](C)/C=C/[C@H](C)[C@](C)(O)CO)CC[C@@H]23)C[C@@H](O)C[C@@H]1O [1α,25S,26-(OH)3 --D2, 1α,25S,26-Trihydroxyergocalciferol] |  | 0.01 ± 0.006 μg per culture | 0.03 ± 0.01 μg per culture | 0.14 ± 0.12 μg per culture | 0.29 ± 0.17 μg per culture | 1.09 ± 0.26 μg per culture | undetectable | 0.01 ± 0.005 μg per culture | 0.07 ± 0.02 μg per culture | 0.08 ± 0.03 μg per culture | 0.21 ± 0.06 μg per culture |
| C=C1/C(=C\C=C2/CCC[C@]3(C)[C@@H]([C@H](C)C=CC[C@](C)(O)CO)CC[C@@H]23)C[C@@H](O)C[C@@H]1O [1α,25S,26-(OH)3 --Δ^22 -D3, 1α,25S,26-Trihydroxy-Δ^22-cholecalciferol] |  | undetectable | 0.05 ± 0.03 μg per culture | 0.09 ± 0.04 μg per culture | 0.24 ± 0.07 μg per culture | 1.02 ± 0.34 μg per culture | 0.005 ± 0.002 μg per culture | 0.01 ± 0.002 μg per culture | 0.04 ± 0.01 μg per culture | 0.06 ± 0.03 μg per culture | 0.20 ± 0.03 μg per culture |
